In patent US20050165115A1, “Methods and compositions for predicting compliance with an antidepressant treatment regimen” (priority 2003, published 2005):

What was measured:
[1] = test system: outpatients 65 years of age or older with major depressive disorder (MDD); assay: Efficacy outcome measures (HDRS-17, GDS) in double-blind mirtazapine vs paroxetine study, stratified by 5HTTLPR genotype; assay type: in vivo, human; settings: for HAMD-17 or GDS, differences among the three genotype groups: patients stratified by 5HTTLPR genotype (S/S, S/L, L/L), any time point
Description: Genet. 8(3):193-195 (1998).

[2] = test system: outpatients 65 years of age or older with major depressive disorder (MDD); settings: in vivo
Description: (§1) The study group included 255 outpatients 65 years of age or older with major depressive disorder (MDD) who were randomized to mirtazapine or paroxetine in a double-blind design at 18 U.S. centers. Details of the study design and overall clinical outcomes have been previously described (Schatzberg et al., Am J Geriatr Psychiatry 10(5):541-550 (2002)). […] At baseline all patients scored above the age-adjusted 25th percentile on the Mini Mental State Exam (MMSE), and all had Hamilton Depression Rating Scale (HDRS-17) scores ≧18. Starting doses were 15 mg for mirtazapine and 20 mg for paroxetine. Dosage for both medications was increased to 30 mg after 14 days, with the option to increase to 45 mg of mirtazapine or 40 mg of paroxetine on subsequent visits. Exclusion criteria were clinically significant unstable medical illness, history of treatment resistance, principal psychiatric diagnoses other than MDD, use of other psychotropics, and electroconvulsive therapy (ECT) within the previous 6 months.
(§2) Genomic DNA was extracted from EDTA-treated frozen whole blood by using a Puregene Kit (Gentra Systems, Minneapolis). 5HTTLPR genotypes were determined by PCR and gel electrophoresis as described in Edenberg et al., Psychiatr. Genet. 8(3):193-195 (1998).
(§3) Plasma drug levels were obtained after 4 weeks of treatment as described (Murphy et al., Biol Psychiatry 54:665-673 (2003)). Efficacy outcome measures (determined at baseline and at day 7,14, 21, 28, 42, and 56) included the Hamilton Depression Rating Scale (HDRS-17) (Hamilton et al., Br J Soc Clin Psychol. 6(4):278-296 (1967)) and the Geriatric Depression Scale (GDS) (Yesavage et al., J. Psychiat. Res. 17:37-49 (1983)). Measures related to adverse events included Medication Compliance, Severity of Adverse Events, Time to Discontinuation of Treatment Regimen due to an adverse event, and number of discontinuations due to an adverse event. Statistical methods included analyses of covariance (adjusted for baseline scores), Cochran-Mantel-Haenszel statistics, and Kaplan-Meier survival analyses. […] Analyses were performed for the entire group and also with 20 ethnic minority patients omitted.

[3] = in vivo
Description: as §1, §2, §3

Fc1ccc([C@@H]2CCNC[C@H]2COc2ccc3c(c2)OCO3)cc1 [paroxetine]
HDRS, carriers of the S allele vs others ([1]; FIG. 2B): No differences
GDS scores, carriers of the S allele ([1]; days 7 (p=0.003) and 28 (p=0.04), adjusted for baseline body weight, higher = more depressed): significantly higher scores
HAMD-17 or GDS, differences among the three genotype groups [1]: no significant differences
subjects who discontinued treatment regimen due to adverse events, 5HTTLPR S/S and 5HT2A C/C genotypes ([2]; human): 7 of 10
adverse events associated with S/S discontinuations [2]: gastrointestinal complaints, fatigue, agitation, sweating, and dizziness
effects of 5HTTLPR and 5HT2A 102 T/C on discontinuation of treatment regimen due to adverse events [2]: significant effects
frequency of discontinuation of treatment regimen, L/L genotype [2]: fewest
frequency of discontinuation of treatment regimen, S/L genotype [2]: intermediate frequency
frequency of discontinuation of treatment regimen, S/S genotype [2]: most frequent
interaction term 5HTTLPR x 5HT2A 102 T/C on discontinuation due to adverse events [2]: not significant
relationship between number of S alleles and discontinuations due to adverse events, Caucasian patients [2]: positive linear relationship
relationship between number of S alleles and probability of discontinuation due to adverse events [2]: positive linear relationship
risk of discontinuation of the treatment regimen due to adverse events, S/L vs L/L genotype [2]: significantly greater risk
severity of adverse events, S/S vs L/L genotype [2]: greater severity
subjects who discontinued treatment regimen, L/L and T/T genotypes [2]: none

CN1CCN2c3ncccc3Cc3ccccc3C2C1 (stereo not drawn) [mirtazapine]
GDS scores, S carriers vs others ([1]; after adjusting for baseline difference, any subsequent time point): not significantly different
HDRS scores, S allele carriers ([1]; day 14, less depressed, p<0.27): lower HDRS scores
HAMD-17 or GDS, differences among the three genotype groups [1]: no significant differences
plasma levels at day 28, differences among the genotype groups [3]: no significant differences
adverse events associated with L/L genotype discontinuations [2]: drowsiness, dizziness, and anxiety
frequency of discontinuation of treatment regimen, L/L genotype [2]: most frequent
relationship between number of L alleles and discontinuation due to adverse events, Caucasian patients [2]: positive linear relationship
relationship between number of L alleles and probability of discontinuation due to adverse events [2]: positive linear relationship
severity of adverse events, L/L vs S/S genotype [2]: greater severity
